Efficacy and logP data for 16 compounds are collected here from patent publication US9725414B2, “Fungicidal N-bicycloalkyl and N-tricycloalkyl pyrazole-4-(thio)carboxamide derivatives” (priority 2011, dated 2017).

In one data set the test system is Alternaria solani. As to the kind of experiment: Example C: in vivo preventive test on Alternaria solani (tomato). To be noted: 500 ppm of active ingredient, evaluated 7 days after inoculation. How it is done:
(§1) In Vivo Preventive Test on Alternaria solani (Tomato) Solvent: 49 parts by weight of N,N-dimethylformamide Emulsifier: 1 part by weight of alkylarylpolyglycolether To produce a suitable preparation of active compound, 1 part by weight of active compound is mixed with the stated amounts of solvent and emulsifier, and the concentrate is diluted with water to the desired concentration. To test for preventive activity, young plants are sprayed with the preparation of active compound at the stated rate of application. One day after this treatment, the plants are inoculated with an aqueous spore suspension of Alternaria solani. The plants remain for one day in an incubation cabinet at approximately 22° C. and a relative atmospheric humidity of 100%. Then the plants are placed in an incubation cabinet at approximately 20° C. and a relative atmospheric humidity of 96%.

For data set [1], the system named is Pyrenophora teres. As to the kind of experiment: Example E: in vivo preventive test on Pyrenophora teres (barley), DMF/emulsifier preparation. Conditions: 500 ppm of active ingredient, evaluated 7-9 days after inoculation. As to the method:
as §1, with “Pyrenophora teres (Barley)” for “Alternaria solani (Tomato)”, “alkylaryl polyglycol ether” for “alkylarylpolyglycolether”, “Pyrenophora teres.” for “Alternaria solani.”, “48 hours” for “one day”, “at” for “at approximately”, “100%.” for “100%. Then the plants are placed in an incubation cabinet at approximately 20° C. and a relative atmospheric humidity of 96%.”

The test system of data set [2] is Sphaerotheca fuliginea. As to the kind of experiment: Example A: in vivo preventive test on Sphaerotheca fuliginea (cucumber). Conditions: 500 ppm of active ingredient, evaluated 7 days after inoculation. How it is done: In Vivo Preventive Test on Sphaerotheca fuliginea (Cucumber) Solvent: 49 parts by weight of N,N-dimethylformamide Emulsifier: 1 part by weight of alkylarylpolyglycolether To produce a suitable preparation of active compound, 1 part by weight of active compound is mixed with the stated amounts of solvent and emulsifier, and the concentrate is diluted with water to the desired concentration. To test for preventive activity, young plants are sprayed with the preparation of active compound at the stated rate of application. One day after this treatment, the plants are inoculated with an aqueous spore suspension of Sphaerotheca fuliginea. Then the plants are placed in a greenhouse at approximately 23° C. and a relative atmospheric humidity of approximately 70%.

The next data set has as its system Puccinia recondita. Description: Example M: in vivo preventive test on Puccinia recondita (brown rust on wheat). Conditions: 500 ppm of active ingredient, grading 12 days after contamination. An outline of the steps: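 Wheat (Scipion) sprayed with compound at 1-leaf stage, grown at 22° C. Inoculated 24 h later with a spore suspension at 100 000 spores per mL. Efficacy (%) graded 12 days after inoculation against solvent-treated controls.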

Data set [3] concerns Sphaerotheca fuliginea. Description: Example B: in vivo preventive test on Sphaerotheca fuliginea (powdery mildew on cucurbits), gherkin plants. Conditions: 500 ppm of active ingredient, grading 12 days after contamination. Put shortly: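 Gherkin plants grown at 24 °C were sprayed with compound at the Z11 cotyledon stage; controls received acetone/tween/DMSO/water without active. 24 h later, cotyledons were inoculated by spraying with Sphaerotheca fuliginea spores (100 000 spores per mL).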

For the next data set, the system named is Alternaria brassicae. Description: Example D: in vivo preventive test on Alternaria brassicae (leaf spot on radish). Conditions: 500 ppm of active ingredient, grading 6 days after contamination. How it is done: In Vivo Preventive Test on Alternaria brassicae (Leaf Spot on Radish) […] Radish plants (“Pernod Clair” variety), sown in starter cups on a 50/50 peat soil pozzolana substrate and grown at 17° C., are treated at the cotyledon stage by spraying with the active ingredient prepared as described above. Plants, used as controls, are treated with the mixture of acetone/tween/DMSO/water not containing the active material. After 24 hours, the plants are contaminated by spraying the cotyledons with an aqueous suspension of Alternaria brassicae spores (50 000 spores per mL). The spores are collected from a 15-day-old culture. The contaminated radish plants are incubated at 20° C. and at 100% relative humidity. Grading (% of efficacy) is carried out 6 days after the contamination, in comparison with the control plants.

The next data set relates to Septoria tritici. Description: Example I: in vivo preventive test on Septoria tritici (wheat), acetone/tween/DMSO preparation. To be noted: 500 ppm of active ingredient, grading 24 days after contamination. Put shortly:
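Scipion wheat grown at 22° C, sprayed at 1-leaf stage (10 cm); controls received acetone/tween/DMSO/water without active. Inoculated 24 h later with S. tritici spores (500 000/mL), held 72 h at 18° C, 100% RH, then 21 days at 90% RH. % efficacy vs controls scored 24 days post-inoculation.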

For the next data set, the system named is Uromyces appendiculatus. Description: Example Q: in vivo preventive test on Uromyces appendiculatus (bean rust). To be noted: Uromyces appendiculatus on bean plants, 500 ppm of active ingredient, grading 11 days after contamination. How it is done: In Vivo Preventive Test on Uromyces appendiculatus (Bean Rust) […] Bean plants (“Saxa” variety), sown in starter cups on a 50/50 peat soil pozzolana substrate and grown at 24° C., are treated at the 2 leaf stage (9 cm height) by spraying with the active ingredient prepared as described above. Plants, used as controls, are treated with the mixture of acetone/tween/DMSO/water not containing the active material. After 24 hours, the plants are contaminated by spraying the leaves with an aqueous suspension of Uromyces appendiculatus spores (150 000 spores per mL). The spores are collected from infected plants and are suspended in water containing 2.5 mL/L of Tween 80 at 10%. […] Grading (% of efficacy) is carried out 11 days after the contamination, in comparison with the control plants.

In data set [4] the test system is Pyrenophora teres. Description: Example F: in vivo preventive test on Pyrenophora teres (barley), acetone/tween/DMSO preparation. Conditions: 500 ppm of active ingredient, barley, grading 14 days after contamination. An outline of the steps: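 Barley ("Plaisant") grown at 22° C was sprayed at the 1-leaf stage (10 cm) with active ingredient in acetone/tween/DMSO/water, with solvent-only controls. After 24 h, leaves were inoculated with Pyrenophora teres spores (12 000 spores per mL) from 12-day cultures. % efficacy versus controls graded 14 days post-contamination.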

Another data set deals with Botrytis cinerea. Description: Example P: in vivo preventive test on Botrytis cinerea (grey mould), gherkin plants. Conditions: 500 ppm of active ingredient, grading 4 to 5 days after contamination. As to the method: In Vivo Preventive Test on Botrytis cinerea (Grey Mould) […] Gherkin plants (“Vert petit de Paris” variety), sown in starter cups on a 50/50 peat soil pozzolana substrate and grown at 24° C. are treated at the Z11 cotyledon stage by spraying with the active ingredient prepared as described above. Plants, used as controls, are treated with the mixture of acetone/tween/DMSO/water not containing the active material. After 24 hours, the plants are contaminated by spraying the cotyledons with an aqueous suspension of cryopreserved Botrytis cinerea spores (50 000 spores per mL). The spores are suspended in a nutrient solution composed of 10 g/L of PDB, 50 g/L of D-Fructose, 2 g/L of NH4NO3 and 1 g/L of KH2PO4. The contaminated gherkin plants are incubated at 17° C. and at 90% relative humidity. Grading (% of efficacy) is carried out 4 to 5 days after the contamination, in comparison with the control plants.

Data set [5] can be described thus: log P by HPLC on reversed-phase column (C 18), EEC Directive 79831 Annex V.A8. Format: physicochemical. Conditions: HPLC reversed-phase C 18, 40° C., 0.1% aqueous formic acid and acetonitrile gradient; several values = mixture of two or more isomers. An outline of the steps:
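Reversed-phase C18 HPLC at 40° C, 0.1% aqueous formic acid/acetonitrile linear gradient 10% to 90% acetonitrile, per EEC Directive 79831 Annex V.A8. log P obtained from retention time by linear interpolation between unbranched alkan-2-ones (C3-C16) of known log P.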

For `CC1CC(C)(C)C2CCCC(NC(=S)c3c(C(F)F)nn(C)c3F)C12` (mixture of isomers) [Example 18], the Efficacy worked out at 80% with Alternaria solani, 95% with Pyrenophora teres [1] and 83% in the data set with Sphaerotheca fuliginea [2].

In the case of `Cn1nc(C(F)F)c(C(=O)N(C2CC2)C2CCC3CCCC3C2)c1F` (mixture of isomers) [Example 22], the Efficacy stood at 100% in the data set on Puccinia recondita; 100% in the data set on Alternaria solani; 100% in the data set with Sphaerotheca fuliginea [3]; 93% in the data set on Alternaria brassicae; 100% with Pyrenophora teres [1]; 88% in the data set with Septoria tritici. In addition, the Efficacy in the data set with Uromyces appendiculatus is reported as 100%.

In the case of `CCc1nn(C)c(F)c1C(=O)N(C1CC1)C(C)C1CC2CCC1C2` (mixture of isomers) [Example 95], the Efficacy in the data set with Alternaria solani amounted to 100%; in the data set on Pyrenophora teres [1], 100%; in the data set on Sphaerotheca fuliginea [2] it was 95%.

For the compound `CC(C1CC2C=CC1C2)N(C(=O)c1cn(C)nc1C(F)F)C1CC1` (mixture of isomers) [Example 102], the Efficacy in the data set with Puccinia recondita is recorded as 90%; with Sphaerotheca fuliginea [3], 100%; with Alternaria brassicae, 92%; in the data set with Pyrenophora teres [4], 100%; in the data set with Botrytis cinerea, 95%; with Septoria tritici it was 75%. In the data set on Uromyces appendiculatus, this compound showed an Efficacy of 92%.

By logP is commonly meant the decadic logarithm of the partition coefficient of the neutral form, usually between octanol and water. Turning to `Cn1nc(C(F)F)c(C(=O)NC2CCC3CCCC32)c1Cl` (stereo not shown) [Example 3], the Efficacy in the data set with Puccinia recondita was found to be 75%; in the data set on Alternaria brassicae, 90%; in the data set with Botrytis cinerea, 95%; with Septoria tritici, 92%; with Uromyces appendiculatus, 100%. Also, the lipophilicity (logP) in data set [5] is given as 3.09.

As to `Cn1cc(C(=O)N(C2CC2)C2CCC3CCCC32)c(C(F)F)n1` (stereo not shown) [Example 6], the Efficacy in the data set on Sphaerotheca fuliginea [3] stood at 100%; in the data set with Alternaria brassicae it was 100%; with Pyrenophora teres [4] it was 100%; with Botrytis cinerea, 100%; with Uromyces appendiculatus, 77%. In addition, the log partition coefficient (logP) in [5] worked out at 3.02.

On to `Cn1nc(C(F)F)c(C(=O)NC2CCCC3CCCCC32)c1F` (stereo not shown) [Example 25], for which the Efficacy stood at 100% in the data set with Puccinia recondita; 100% in the data set on Alternaria solani; 100% in the data set with Sphaerotheca fuliginea [3]; 95% in the data set with Pyrenophora teres [1]; 88% in the data set on Sphaerotheca fuliginea [2]; 86% with Pyrenophora teres [4]. In addition, the figures for the Efficacy with Septoria tritici and in the data set on Uromyces appendiculatus were 96% and 80%, respectively. Moreover, the lipophilicity (logP) in data set [5] is on record as 3.60.

Consider `Cn1nc(C(F)F)c(C(=O)N(CC2CCCC3CCCCC32)C2CC2)c1F` (stereo not shown) [Example 65], for which the Efficacy in the data set on Puccinia recondita, with Sphaerotheca fuliginea [3], with Alternaria brassicae, in the data set on Pyrenophora teres [4], with Botrytis cinerea and in the data set with Septoria tritici was 100% each time. This compound had an Efficacy in the data set on Uromyces appendiculatus of 100%. Besides, the logP in data set [5] is 4.90.

Consider `Cn1cc(C(=O)N(CC2CCCC3CCCCC32)C2CC2)c(C(F)F)n1` (stereo not shown) [Example 66], for which the Efficacy with Puccinia recondita worked out at 94%; in the data set on Sphaerotheca fuliginea [3] it was 100%; with Alternaria brassicae, 96%; in the data set on Pyrenophora teres [4], 100%; in the data set with Botrytis cinerea it was 99%; with Septoria tritici, 100%. This compound also came in with an Efficacy with Uromyces appendiculatus of 88%. Besides, the logP in [5] is 4.37.

In the case of `Cn1cc(C(=O)N(CC2(Cc3ccccc3)CC3CCC2C3)C2CC2)c(C(F)F)n1` (stereo not shown) [Example 70], the Efficacy in the data set on Sphaerotheca fuliginea [3] came out at 98%; in the data set on Alternaria brassicae it was 91%; in the data set on Pyrenophora teres [4], 79%; in the data set on Botrytis cinerea, 100%; in the data set with Septoria tritici, 96%; with Uromyces appendiculatus, 88%. In addition, the logP in [5] stood at 4.32.

`CC1C(CN(C(=O)c2c(C(F)F)nn(C)c2F)C2CC2)CC2CC1C2(C)C` (stereo not shown) [Example 77]: the Efficacy came out at 95% in the data set with Alternaria solani, 100% in the data set on Pyrenophora teres [1] and 100% with Sphaerotheca fuliginea [2]. The logP in data set [5] is recorded as 4.69.

In the case of `CC1C(CN(C(=O)c2cn(C)nc2C(F)F)C2CC2)CC2CC1C2(C)C` (stereo not shown) [Example 78], the values for the Efficacy in the data set with Alternaria solani, with Pyrenophora teres [1] and with Sphaerotheca fuliginea [2] were 100%, 100% and 95%, respectively. The logP in [5] was found to be 4.21.

With `CC1C(CNC(=S)c2c(C(F)F)nn(C)c2F)CC2CC1C2(C)C` (stereo not shown) [Example 82], the Efficacy with Alternaria solani stood at 90%; in the data set on Pyrenophora teres [1] it was 95%; with Sphaerotheca fuliginea [2], 93%. For the same compound, in data set [5], the lipophilicity (logP) was found to be 4.82.

Take `Cn1nc(C(F)F)c(C(=O)NCC2CCC3CC2C3(C)C)c1Cl` (stereo not shown) [Example 83]: the figures for the Efficacy with Alternaria solani, in the data set with Pyrenophora teres [1] and with Sphaerotheca fuliginea [2] were 95%, 100% and 90%, respectively. For the same compound, the logP in data set [5] worked out at 3.85.

For `Cc1nn(C)c(F)c1C(=O)N(C1CC1)C(C)C1CC2CCC1C2` (stereo not shown) [Example 96], the results for the Efficacy with Alternaria solani, in the data set on Pyrenophora teres [1] and in the data set with Sphaerotheca fuliginea [2] were 100%, 100% and 95%, respectively. Moreover, in [5], the logP was determined as 3.46.

Take `Cc1nn(C)c(F)c1C(=S)N(C1CC1)C(C)C1CC2CCC1C2` (stereo not shown) [Example 98]: the Efficacy amounted to 95% in the data set with Alternaria solani, 100% in the data set with Pyrenophora teres [1] and 93% in the data set with Sphaerotheca fuliginea [2]. In [5], the logP is listed as 4.34.
